{
  "source": "patent US11478550B2",
  "about": "“Biodegradable hydrogel and methods for use thereof” (International Business Machines Corporation, priority 2018, dated 2022)",
  "key": {"[1]": {"details": "cited from earlier work"}, "[2]": {"test_system": "Human multiple myeloma (MM.1S) cells", "assay": "Cytotoxicity test (CellTiter 96 AQueous One)", "type": "cell-based", "details": "48 h, alone or combined with the hydrogels (FIG. 2)", "procedure": "Human multiple myeloma (MM.1S) cells were seeded at a density of 10×10^3 cells per well onto a 96 well plate and incubated overnight at 37° C. On the day of treatment, the medium was removed and 90 μl of RPMI was added to each well. Following this, 10 μL of the hydrogels or micelles-containing hydrogels were added to the cells. The plate was then incubated for another 48 h at 37° C. Reagents from the CellTiter 96® AQueous One Solution Cell Proliferation Assay Kit (Promega, USA) and RPMI were then mixed at a volume ratio of 1:4 and 100 μL of this mixture was then added to each well and the cells were left to incubate in the dark at 37° C. for 2 h. Untreated cells were then used as the control. Subsequently, the absorbance at 490 nm was measured and the readings were then expressed as a percentage of the cell viability of the control."}, "[3]": {"test_system": "refractory and/or relapsed MM", "details": "single agent; cited from earlier work"}},
  "note": "Read-outs that look alike come from different tables or passages of the source.",
  "data": [
    {"smiles": "CC(C)C[C@H](NC(=O)[C@H](Cc1ccccc1)NC(=O)c1cnccn1)B(O)O", "note": "[BTZ, bortezomib]", "values": [
      {"measurement": "time to reach mean maximum plasma concentration", "setting": "[1]; intravenous bolus", "value": 3, "unit": "min"},
      {"measurement": "time to reach mean maximum plasma concentration", "setting": "[1]; subcutaneous administration", "value": 120, "unit": "min"},
      {"measurement": "effect on cell viability", "setting": "[2]", "value": "marked effect on cell viability"},
      {"measurement": "1-year overall survival rate", "setting": "[3]", "value": 80, "unit": "%"},
      {"measurement": "longer median time to progression compared to dexamethasone", "setting": "[3]", "value": 78, "unit": "%"}
    ]}
  ]
}
